Reference: patent publication US8912176B2 (Evotec AG, priority 2009, dated 2014)

target: human H3 receptor (Homo sapiens, UniProt Q9Y5N1); assay: cAMP quantification assay for human H3 receptor (DiscoveRx cAMP XS+)
Sequence (Q9Y5N1 whole entry): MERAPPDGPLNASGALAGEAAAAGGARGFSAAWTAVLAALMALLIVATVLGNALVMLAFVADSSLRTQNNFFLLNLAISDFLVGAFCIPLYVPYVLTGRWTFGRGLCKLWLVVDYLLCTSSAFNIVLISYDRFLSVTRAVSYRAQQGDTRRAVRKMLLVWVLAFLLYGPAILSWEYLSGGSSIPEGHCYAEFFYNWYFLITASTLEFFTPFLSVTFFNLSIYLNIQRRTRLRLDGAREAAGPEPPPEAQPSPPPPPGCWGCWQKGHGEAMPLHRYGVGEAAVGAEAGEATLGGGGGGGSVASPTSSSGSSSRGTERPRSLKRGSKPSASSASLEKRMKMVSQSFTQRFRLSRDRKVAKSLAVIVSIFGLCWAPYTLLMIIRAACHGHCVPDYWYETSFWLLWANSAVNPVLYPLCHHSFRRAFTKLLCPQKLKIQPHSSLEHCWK

| SMILES | IC50 |
| --- | --- |
| Cc1ncc(C(=O)N2CC(C(=O)N3CCCN(C4CCC4)CC3)C2)cn1 [Example 8, 1-cyclobutyl-4-({1-[(2-methylpyrimidin-5-yl)carbonyl]azetidin-3-yl}carbonyl)-1,4-diazepane] | < 50 nM |
| O=C(c1ccc(-c2nccs2)cc1)N1CC(C(=O)N2CCCN(C3CCC3)CC2)C1 [Example 35, 1-cyclobutyl-4-[(1-{[4-(1,3-thiazol-2-yl)phenyl]carbonyl}azetidin-3-yl)carbonyl]-1,4-diazepane] | < 50 nM |
| N#Cc1ccc(OC(=O)N2CC(C(=O)N3CCCN(C4CCC4)CC3)C2)cc1 [Example 69, 4-cyanophenyl 3-[(4-cyclobutyl-1,4-diazepan-1-yl)carbonyl]azetidine-1-carboxylate] | < 50 nM |
| CN(Cc1ccc(C#N)cc1)C(=O)N1CC(C(=O)N2CCCN(C3CCC3)CC2)C1 [Example 64, N-(4-cyanobenzyl)-3-[(4-cyclobutyl-1,4-diazepan-1-yl)carbonyl]-N-methylazetidine-1-carboxamide] | < 50 nM |
| CN(Cc1ccc(F)cc1)C(=O)N1CC(C(=O)N2CCCN(C3CCC3)CC2)C1 [Example 62, 3-[(4-cyclobutyl-1,4-diazepan-1-yl)carbonyl]-N-(4-fluorobenzyl)-N-methylazetidine-1-carboxamide] | < 50 nM |
| COc1ccc(S(=O)(=O)N2CC(C(=O)N3CCCN(C4CCC4)CC3)C2)cc1 [Example 23, 1-cyclobutyl-4-({1-[(4-methoxyphenyl)sulfonyl]azetidin-3-yl}carbonyl)-1,4-diazepane] | 50 to 100 nM |
| CCC(=O)N1CC(C(=O)N2CCCN(C3CCC3)CC2)C1 [Example 71, 1-cyclobutyl-4-[(1-propanoylazetidin-3-yl)carbonyl]-1,4-diazepane] | < 50 nM |
| O=C(C1CN(C(=O)C2CCCCC2)C1)N1CCCN(C2CCC2)CC1 [Example 4, 1-cyclobutyl-4-{[1-(cyclohexylcarbonyl)azetidin-3-yl]carbonyl}-1,4-diazepane] | < 50 nM |
| O=C(c1ccc(-n2cncn2)nc1)N1CC(C(=O)N2CCCN(C3CCC3)CC2)C1 [Example 13, 1-cyclobutyl-4-[(1-{[6-(1H-1,2,4-triazol-1-yl)pyridin-3-yl]carbonyl}azetidin-3-yl)carbonyl]-1,4-diazepane] | < 50 nM |
| O=C(c1ccc(-c2cccnc2)cc1)N1CC(C(=O)N2CCCN(C3CCC3)CC2)C1 [Example 44, 1-cyclobutyl-4-({1-[(4-pyridin-3-ylphenyl)carbonyl]azetidin-3-yl}carbonyl)-1,4-diazepane] | < 50 nM |
| O=C(Cc1ccc(Cl)cc1)N1CC(C(=O)N2CCCN(C3CCC3)CC2)C1 [Example 54, 1-({1-[(4-chlorophenyl)acetyl]azetidin-3-yl}carbonyl)-4-cyclobutyl-1,4-diazepane] | < 50 nM |
| O=C(C1CN(S(=O)(=O)CC2CCCC2)C1)N1CCCN(C2CCC2)CC1 [Example 25, 1-cyclobutyl-4-({1-[(cyclopentylmethyl)sulfonyl]azetidin-3-yl}carbonyl)-1,4-diazepane] | < 50 nM |
| O=C(c1ccc(-n2cccn2)nc1)N1CC(C(=O)N2CCCN(C3CCC3)CC2)C1 [Example 14, 1-cyclobutyl-4-[(1-{[6-(1H-pyrazol-1-yl)pyridin-3-yl]carbonyl}azetidin-3-yl)carbonyl]-1,4-diazepane] | < 50 nM |
| Cc1ccc(C(=O)N2CC(C(=O)N3CCCN(C4CCCC4)CC3)C2)cn1 [Example 81, 1-cyclopentyl-4-({1-[(6-methylpyridin-3-yl)carbonyl]azetidin-3-yl}carbonyl)-1,4-diazepane] | < 50 nM |
| CN(CC1CCCCC1)C(=O)N1CC(C(=O)N2CCCN(C3CCC3)CC2)C1 [Example 60, 3-[(4-cyclobutyl-1,4-diazepan-1-yl)carbonyl]-N-(cyclohexylmethyl)-N-methylazetidine-1-carboxamide] | < 50 nM |
| CN(C(=O)N1CC(C(=O)N2CCCN(C3CCC3)CC2)C1)c1ccc(C#N)cc1 [Example 63] | < 50 nM |
| Cc1ccc(C(=O)N2CC(C(=O)N3CCCN(C4CCCCC4)CC3)C2)cn1 [Example 82, 1-cyclohexyl-4-({1-[(6-methylpyridin-3-yl)carbonyl]azetidin-3-yl}carbonyl)-1,4-diazepane] | < 50 nM |
| Cc1nc(-c2ccc(C(=O)N3CC(C(=O)N4CCCN(C5CCC5)CC4)C3)cc2)cs1 [Example 36, 1-cyclobutyl-4-[(1-{[4-(2-methyl-1,3-thiazol-4-yl)phenyl]carbonyl}azetidin-3-yl)carbonyl]-1,4-diazepane] | < 50 nM |
| O=C(OCc1ccccc1)N1CC(C(=O)N2CCCN(C3CCC3)CC2)C1 [Example 1, benzyl 3-[(4-cyclobutyl-1,4-diazepan-1-yl)carbonyl]azetidine-1-carboxylate] | < 50 nM |
| Cc1ccc(OCC(=O)N2CC(C(=O)N3CCCN(C4CCC4)CC3)C2)cn1 [Example 21, 1-cyclobutyl-4-[(1-{[(6-methylpyridin-3-yl)oxy]acetyl}azetidin-3-yl)carbonyl]-1,4-diazepane] | < 50 nM |

| SMILES | IC50 |
| --- | --- |
| N#Cc1ccc(S(=O)(=O)N2CC(C(=O)N3CCCN(C4CCC4)CC3)C2)cc1 [Example 27, 4-({3-[(4-cyclobutyl-1,4-diazepan-1-yl)carbonyl]azetidin-1-yl}sulfonyl)benzonitrile] | < 50 nM |
| O=C(NCC1CCCCC1)N1CC(C(=O)N2CCCN(C3CCC3)CC2)C1 [Example 56, 3-[(4-cyclobutyl-1,4-diazepan-1-yl)carbonyl]-N-(cyclohexylmethyl)azetidine-1-carboxamide] | < 50 nM |
| N#Cc1ccc(CNC(=O)N2CC(C(=O)N3CCCN(C4CCC4)CC3)C2)cc1 [Example 66, N-(4-cyanobenzyl)-3-[(4-cyclobutyl-1,4-diazepan-1-yl)carbonyl]azetidine-1-carboxamide] | < 50 nM |
| O=C(c1ccc(-c2ccncc2)cc1)N1CC(C(=O)N2CCCN(C3CCC3)CC2)C1 [Example 45, 1-cyclobutyl-4-({1-[(4-pyridin-4-ylphenyl)carbonyl]azetidin-3-yl}carbonyl)-1,4-diazepane] | < 50 nM |
| CNC(=O)c1ccc(C(=O)N2CC(C(=O)N3CCCN(C4CCC4)CC3)C2)cn1 [Example 77, 5-({3-[(4-cyclobutyl-1,4-diazepan-1-yl)carbonyl]azetidin-1-yl}carbonyl)-N-methylpyridine-2-carboxamide] | < 50 nM |
| O=C(C1CN(C(=O)C2CCOCC2)C1)N1CCCN(C2CCC2)CC1 [Example 5, 1-cyclobutyl-4-{[1-(tetrahydro-2H-pyran-4-ylcarbonyl)azetidin-3-yl]carbonyl}-1,4-diazepane] | < 50 nM |
| Cc1nc(-c2cccc(C(=O)N3CC(C(=O)N4CCCN(C5CCC5)CC4)C3)c2)cs1 [Example 46, 1-cyclobutyl-4-[(1-{[3-(2-methyl-1,3-thiazol-4-yl)phenyl]carbonyl}azetidin-3-yl)carbonyl]-1,4-diazepane] | < 50 nM |
| N#Cc1ccc(NC(=O)N2CC(C(=O)N3CCCN(C4CCC4)CC3)C2)cc1 [Example 59, N-(4-cyanophenyl)-3-[(4-cyclobutyl-1,4-diazepan-1-yl)carbonyl]azetidine-1-carboxamide] | < 50 nM |
| Cc1nnc(-c2ccc(C(=O)N3CC(C(=O)N4CCCN(C5CCC5)CC4)C3)cc2)o1 [Example 31, 1-cyclobutyl-4-[(1-{[4-(5-methyl-1,3,4-oxadiazol-2-yl)phenyl]carbonyl}azetidin-3-yl)carbonyl]-1,4-diazepane] | < 50 nM |
| O=C(c1ccc(-n2ccnc2)cc1)N1CC(C(=O)N2CCCN(C3CCC3)CC2)C1 [Example 72, 1-cyclobutyl-4-[(1-{[4-(1H-imidazol-1-yl)phenyl]carbonyl}azetidin-3-yl)carbonyl]-1,4-diazepane] | < 50 nM |
| O=C(CC1CCOCC1)N1CC(C(=O)N2CCCN(C3CCC3)CC2)C1 [Example 53, 1-cyclobutyl-4-{[1-(tetrahydro-2H-pyran-4-ylacetyl)azetidin-3-yl]carbonyl}-1,4-diazepane] | 100 to 5000 nM |
| O=C(c1ccc(-n2cncn2)c(F)c1)N1CC(C(=O)N2CCCN(C3CCC3)CC2)C1 [Example 78, 1-cyclobutyl-4-[(1-{[3-fluoro-4-(1H-1,2,4-triazol-1-yl)phenyl]carbonyl}azetidin-3-yl)carbonyl]-1,4-diazepane] | < 50 nM |
| O=C(c1ccc(-n2cncn2)cc1)N1CC(C(=O)N2CCCN(C3CCC3)CC2)C1 [Example 73, 1-cyclobutyl-4-[(1-{[4-(1H-1,2,4-triazol-1-yl)phenyl]carbonyl}azetidin-3-yl)carbonyl]-1,4-diazepane] | < 50 nM |
| COC1CCC(C(=O)N2CC(C(=O)N3CCCN(C4CCC4)CC3)C2)CC1 (mixture of isomers) [Example 28, 1-cyclobutyl-4-({1-[(4-methoxycyclohexyl)carbonyl]azetidin-3-yl}carbonyl)-1,4-diazepane] | < 50 nM |
| O=C(CN1CCC(F)(F)C1)N1CC(C(=O)N2CCCN(C3CCC3)CC2)C1 [Example 19, 1-cyclobutyl-4-({1-[(3,3-difluoropyrrolidin-1-yl)acetyl]azetidin-3-yl}carbonyl)-1,4-diazepane] | < 50 nM |
| N#Cc1ccc(CC(=O)N2CC(C(=O)N3CCCN(C4CCC4)CC3)C2)cc1 [Example 34, 4-(2-{3-[(4-cyclobutyl-1,4-diazepan-1-yl)carbonyl]azetidin-1-yl}-2-oxoethyl)benzonitrile] | < 50 nM |
| Cc1ccc(C(=O)N2CC(C(=O)N3CCCN(C(C)C)CC3)C2)cn1 [Example 79, 1-(1-methylethyl)-4-({1-[(6-methylpyridin-3-yl)carbonyl]azetidin-3-yl}carbonyl)-1,4-diazepane] | 100 to 5000 nM |
| O=C(Oc1ccc(Cl)cc1)N1CC(C(=O)N2CCCN(C3CCC3)CC2)C1 [Example 67, 4-chlorophenyl 3-[(4-cyclobutyl-1,4-diazepan-1-yl)carbonyl]azetidine-1-carboxylate] | < 50 nM |
| Cc1ccc(C(=O)N2CC(C(=O)N3CCCN(CC(C)C)CC3)C2)cn1 [Example 84, 1-(2-methylpropyl)-4-({1-[(6-methylpyridin-3-yl)carbonyl]azetidin-3-yl}carbonyl)-1,4-diazepane] | 100 to 5000 nM |
| Cc1cnc(C(=O)N2CC(C(=O)N3CCCN(C4CCC4)CC3)C2)cn1 [Example 9, 1-cyclobutyl-4-({1-[(5-methylpyrazin-2-yl)carbonyl]azetidin-3-yl}carbonyl)-1,4-diazepane] | < 50 nM |
